Source: patent US9481654B2, “Compositions and methods for inhibition of the JAK pathway” (Rigel Pharmaceuticals, Inc., priority 2006, dated 2016)

Each compound was assayed on IFNγ induced ICAM-1 (CD54) up-regulation in A549 lung epithelial cells (JAK/Stat pathway) (assay: A549 Epithelial Line Stimulated with IFNγ (ICAM-1 surface expression, flow cytometry)). Details: Table III Example 5.
Format: cell-based, human
Procedure, shortened: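 A549 cells (20,000/well, adhered overnight) pre-treated with compound 1 h, then IFNγ 75 ng/mL for 24 h; compound 30 μM–14 nM in 5% FBS, 0.3% DMSO. Surface ICAM-1 stained with APC anti-CD54, geometric mean by flow cytometry; dose-response gives EC50.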
`Cc1ccc(Nc2ncc(C)c(Nc3ccc(CNS(=O)(=O)C4CC4)cc3)n2)cc1S(=O)(=O)NC(C)C` [Compound I-189, N4-(4-cyclopropylsulfonylaminomethyl)phenyl-N2-(3-isopropylaminosulfonyl-4-methyl)phenyl-5-methyl-2,4-pyrimidinediamine] gave an IC50 of 1.72 µM.
For `COCCNS(=O)(=O)c1cc(Nc2ncc(C)c(Nc3ccc(CNS(=O)(=O)C4CC4)cc3)n2)ccc1C` [Compound I-190, N4-(4-cyclopropylsulfonylaminomethyl)phenyl-N2-[3-(2-methoxyethyl)aminosulfonyl-4-methyl]phenyl-5-methyl-2,4-pyrimidinediamine], the IC50 was 1.36 µM.
Compound `COCCCNS(=O)(=O)c1cc(Nc2ncc(C)c(Nc3ccc(CNS(=O)(=O)C4CC4)cc3)n2)ccc1C` [Compound I-191, N4-(4-cyclopropylsulfonylaminomethyl)phenyl-N2-[3-(3-methoxypropyl)aminosulfonyl-4-methyl]phenyl-5-methyl-2,4-pyrimidinediamine] has an IC50 of 3.06 µM.
`Cc1ccc(Nc2ncc(C)c(Nc3ccc(CNS(=O)(=O)C4CC4)cc3)n2)cc1S(=O)(=O)NCC1CC1` [Compound I-192, N2-(3-cyclopropylmethylaminosulfonyl-4-methyl)phenyl-N4-(4-cyclopropylsulfonylaminomethyl)phenyl-5-methyl-2,4-pyrimidinediamine] was tested, and the IC50 was 2.3 µM.
`Cc1ccc(Nc2ncc(C)c(Nc3ccc(CNS(=O)(=O)C4CC4)cc3)n2)cc1S(=O)(=O)NCc1ccccc1` [Compound I-195, N2-(3-benzylaminosulfonyl-4-methyl)phenyl-N4-(4-cyclopropylsulfonylaminomethyl)phenyl-5-methyl-2,4-pyrimidinediamine] gave an IC50 of 3.54 µM.
In the case of `Cc1ccc(Nc2ncc(C)c(Nc3ccc(CNS(=O)(=O)C4CC4)cc3)n2)cc1S(=O)(=O)Nc1ccccc1` [Compound I-202, N4-(4-cyclopropylsulfonylaminomethyl)phenyl-5-methyl-N2-(4-methyl-3-phenylaminosulfonyl)phenyl-2,4-pyrimidinediamine], the IC50 is reported as 6.05 µM.
`CNS(=O)(=O)c1ccc(Nc2ncc(C)c(Nc3cccc(CNS(=O)(=O)C4CC4)c3)n2)cc1` [Compound I-207, N4-(3-cyclopropylsulfonylaminomethyl)phenyl-5-methyl-N2-(4-methylaminosulfonyl)phenyl-2,4-pyrimidinediamine] gave an IC50 of 6.11 µM.
`CCNS(=O)(=O)c1cccc(Nc2ncc(C)c(Nc3cccc(CNS(=O)(=O)C4CC4)c3)n2)c1` [Compound I-208, N4-(3-cyclopropylsulfonylaminomethyl)phenyl-N2-(3-ethylaminosulfonyl)phenyl-5-methyl-2,4-pyrimidinediamine] was tested, and the IC50 was 1.3 µM.
`COCCNS(=O)(=O)c1cc(Nc2ncc(C)c(Nc3cccc(CNS(=O)(=O)C4CC4)c3)n2)ccc1C` [Compound I-210, N4-(3-cyclopropylsulfonylaminomethyl)phenyl-N2-[3-(2-methoxyethyl)aminosulfonyl-4-methyl]phenyl-5-methyl-2,4-pyrimidinediamine] showed an IC50 of 2.47 µM.
In the case of `Cc1cnc(Nc2ccc(S(N)(=O)=O)cc2)nc1Nc1ccc2c(c1)CCN(S(=O)(=O)C1CC1)C2` [II-1, N2-(4-aminosulfonyl)phenyl-N4-[(N-cyclopropylsulfonyl)-1,2,3,4-tetrahydroisoquinolin-6-yl]-5-methyl-2,4-pyrimidinediamine], the IC50 is reported as 18.3 µM.
`Cc1ccc(Nc2ncc(C)c(Nc3ccc4c(c3)CCN(S(=O)(=O)C3CC3)C4)n2)cc1S(N)(=O)=O` [II-3, N2-(3-aminosulfonyl-4-methyl)phenyl-N4-[(N-cyclopropylsulfonyl)-1,2,3,4-tetrahydroisoquinolin-6-yl]-5-methyl-2,4-pyrimidinediamine] showed an IC50 of 12.4 µM.
For `Cc1cnc(Nc2cccc(S(N)(=O)=O)c2)nc1Nc1ccc2c(c1)CN(S(=O)(=O)C1CC1)C2` [II-8, N2-(3-Aminosulfonyl-phenyl)-N4-[(2-cyclopropylsulfonyl)-isoindolin-5-yl]-5-methyl-2,4-pyrimidinediamine], the IC50 was 17.8 µM.
